Measurements reported in ChEMBL document CHEMBL5154721, “Discovery of HDAC6-Selective Inhibitor NN-390 with in Vitro Efficacy in Group 3 Medulloblastoma” (J Med Chem, 2022).
Active and inactive are the calls of the source. No cut-off for these calls is given here.

What was measured:
[1] = biological target: T1, Protein deacetylase HDAC6 (Homo sapiens, UniProt Q9UBN7); assay: Inhibition of full length human recombinant HDAC6 expressed in Sf9 baculovirus system using FAM-labeled acetylated peptide as substrate by measuring fluorescence intensity by EMSA method
T1 sequence (Q9UBN7 whole entry): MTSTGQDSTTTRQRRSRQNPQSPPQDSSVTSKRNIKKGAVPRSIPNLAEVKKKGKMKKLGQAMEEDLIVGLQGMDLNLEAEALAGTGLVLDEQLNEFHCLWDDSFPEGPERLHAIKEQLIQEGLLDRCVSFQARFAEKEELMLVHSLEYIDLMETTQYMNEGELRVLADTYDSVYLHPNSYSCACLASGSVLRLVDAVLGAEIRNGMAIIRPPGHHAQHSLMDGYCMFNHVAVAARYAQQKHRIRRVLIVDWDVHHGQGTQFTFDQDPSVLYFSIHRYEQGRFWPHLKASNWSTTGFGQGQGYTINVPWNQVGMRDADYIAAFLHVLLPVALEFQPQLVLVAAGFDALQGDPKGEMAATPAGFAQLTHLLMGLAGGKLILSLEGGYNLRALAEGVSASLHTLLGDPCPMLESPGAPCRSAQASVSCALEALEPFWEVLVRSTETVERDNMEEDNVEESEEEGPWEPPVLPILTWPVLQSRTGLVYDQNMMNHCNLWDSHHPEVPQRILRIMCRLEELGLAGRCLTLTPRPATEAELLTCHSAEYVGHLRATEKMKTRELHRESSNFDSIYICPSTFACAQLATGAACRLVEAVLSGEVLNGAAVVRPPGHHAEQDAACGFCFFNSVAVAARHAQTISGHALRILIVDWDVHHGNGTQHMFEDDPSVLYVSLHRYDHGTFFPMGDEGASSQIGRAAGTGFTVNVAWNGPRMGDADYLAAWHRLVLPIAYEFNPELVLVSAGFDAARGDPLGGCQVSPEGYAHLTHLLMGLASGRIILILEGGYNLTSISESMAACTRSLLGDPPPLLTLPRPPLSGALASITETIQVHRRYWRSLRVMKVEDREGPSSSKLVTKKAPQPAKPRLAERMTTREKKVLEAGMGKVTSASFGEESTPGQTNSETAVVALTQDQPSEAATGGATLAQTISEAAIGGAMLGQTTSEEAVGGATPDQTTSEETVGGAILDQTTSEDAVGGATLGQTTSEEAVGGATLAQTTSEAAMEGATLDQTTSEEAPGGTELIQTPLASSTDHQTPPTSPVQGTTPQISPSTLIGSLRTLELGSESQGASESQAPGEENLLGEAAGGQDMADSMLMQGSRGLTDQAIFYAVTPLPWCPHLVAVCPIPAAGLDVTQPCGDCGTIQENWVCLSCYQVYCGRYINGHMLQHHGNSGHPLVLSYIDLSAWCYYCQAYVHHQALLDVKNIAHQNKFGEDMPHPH

Histone deacetylase 3 = Histone deacetylase 3 (Homo sapiens, UniProt O15379); assay: Inhibition of full length human recombinant HDAC3 expressed in Sf9 baculovirus system using FAM-labeled acetylated peptide as substrate by measuring fluorescence intensity by EMSA method
Histone deacetylase 3, sequence (O15379 whole entry): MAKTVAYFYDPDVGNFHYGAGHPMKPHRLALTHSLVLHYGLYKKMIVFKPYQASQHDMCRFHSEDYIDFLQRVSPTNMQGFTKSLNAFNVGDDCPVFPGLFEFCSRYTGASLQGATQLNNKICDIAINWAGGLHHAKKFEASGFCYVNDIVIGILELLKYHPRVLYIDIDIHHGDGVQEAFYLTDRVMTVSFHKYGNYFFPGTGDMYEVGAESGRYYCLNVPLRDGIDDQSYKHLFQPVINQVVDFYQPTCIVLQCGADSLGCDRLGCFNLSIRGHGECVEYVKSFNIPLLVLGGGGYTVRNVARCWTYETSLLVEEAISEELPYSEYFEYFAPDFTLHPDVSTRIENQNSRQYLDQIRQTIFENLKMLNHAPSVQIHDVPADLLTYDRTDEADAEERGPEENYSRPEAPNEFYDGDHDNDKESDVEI

Histone deacetylase 8 = biological target: T2, Histone deacetylase 8 (Homo sapiens, UniProt Q9BY41); assay: Inhibition of full length human recombinant HDAC8 expressed in Sf9 baculovirus system using FAM-labeled acetylated peptide as substrate by measuring fluorescence intensity by EMSA method
T2 sequence (Q9BY41 whole entry): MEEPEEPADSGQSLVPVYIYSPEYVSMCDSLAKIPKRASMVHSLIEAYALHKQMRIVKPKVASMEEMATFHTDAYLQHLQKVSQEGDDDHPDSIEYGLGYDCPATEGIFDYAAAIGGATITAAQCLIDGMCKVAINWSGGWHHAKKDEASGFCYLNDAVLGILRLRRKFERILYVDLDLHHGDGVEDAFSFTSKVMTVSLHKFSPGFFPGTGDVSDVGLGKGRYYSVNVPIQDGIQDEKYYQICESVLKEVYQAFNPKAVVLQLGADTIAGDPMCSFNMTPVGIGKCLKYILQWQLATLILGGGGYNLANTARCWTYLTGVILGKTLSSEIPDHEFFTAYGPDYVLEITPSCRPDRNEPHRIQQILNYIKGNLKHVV

in vitro = details: human, MRC9 cells
MV4-11 [2] = assay: cells; assay type: functional, cell-based; details: Homo sapiens, MV4-11, 72 h
MM1.S = assay: Cytotoxicity against human MM1.S cells assessed as inhibition of cell growth incubated for 72 hrs measured by spectrophotometer analysis; assay type: functional, cell-based
Histone deacetylase 11 = biological target: T3, Histone deacetylase 11 (Homo sapiens, UniProt Q96DB2); assay: Inhibition of full length human recombinant HDAC11 expressed in Sf9 baculovirus system using FAM-labeled acetylated peptide as substrate by measuring fluorescence intensity by EMSA method
T3 sequence (Q96DB2 whole entry): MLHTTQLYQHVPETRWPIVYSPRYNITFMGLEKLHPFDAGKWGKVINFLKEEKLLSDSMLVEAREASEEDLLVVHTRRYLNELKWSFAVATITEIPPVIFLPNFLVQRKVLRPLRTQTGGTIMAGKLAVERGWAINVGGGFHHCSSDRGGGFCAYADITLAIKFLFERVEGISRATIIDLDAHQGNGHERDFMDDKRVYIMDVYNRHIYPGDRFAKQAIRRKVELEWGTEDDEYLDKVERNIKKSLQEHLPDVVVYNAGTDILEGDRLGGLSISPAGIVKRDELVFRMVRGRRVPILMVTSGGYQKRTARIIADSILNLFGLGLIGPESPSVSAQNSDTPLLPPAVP

[3] = Competitive inhibition of N-terminal His-SUMO tagged zebra fish recombinant HDAC6 catalytic domain 2 transfected with pET28b(+) vector in Escherichia coli BL21 (DE3) RILP cells incubated for 10 mins followed by addition of FITC-M344 measured af ter 10 mins by fluorescence polarization assay; set-up: species or system Danio rerio
[4] = AUCinfinity in CD-1 mouse at 20 mg/kg, ip; assay type: ADME, organism-based; set-up: time infinity, dose 20 mg/kg, route ip; details: in vivo
[5] = Stability in human plasma assessed as half life measured upto 60 mins by LC-MS/MS analysis; assay type: ADME, cell-free
[6] = AUC/D in CD-1 mouse at 20 mg/kg, ip; assay type: ADME, organism-based; details: in vivo
[7] = Cytotoxicity against human fetal neuronal stem cells assessed as inhibition of cell growth incubated for 72 hrs measured by spectrophotometer analysis; assay type: toxicity, cell-based, NSC
[8] = Lipophilicity, logP of the compound; assay type: physicochemical; details: octanol/water
[9] = Cytotoxicity against human HD-MB03 cells assessed as inhibition of cell growth incubated for 72 hrs measured by spectrophotometer analysis; assay type: functional, cell-based; details: HD-MB03, 72 h
MV4-11 [10] = assay: Increase in acetylation of histone H3 in human MV4-11 cells at 0.1 uM after 6 hrs by Western blot analysis; assay type: functional, cell-based
MV4-11 [11] = assay: Induction of apoptosis in human MV4-11 cells assessed as late apoptotic cells at 2 uM after 18 hrs by Annexin V/PI staining based flow cytometric analysis; assay type: functional
HD-MB03 [12] = assay: Increase in acetylation of histone H3 in human HD-MB03 cells at 211 nM for 6 hrs by Western blotting anlaysis; assay type: functional, cell-based
MV4-11 [13] = assay: Induction of apoptosis in human MV4-11 cells assessed as late apoptotic cells at 0.25 uM after 24 hrs by Annexin V/PI staining based flow cytometric analysis (Rvb=8.13%); assay type: functional
HD-MB03 [14] = assay: […] of self renewal of BTIC-enriched human HD-MB03 cells at 964 nM incubated for 72 hrs by sphere formation assay; assay type: functional, cell-based
[15] = Therapeutic window, ratio of IC50 for human fetal neuronal stem cells to IC50 for human HD-MB03 cells; assay type: ADME; details: fetal neuronal stem cells versus HD-MB03 cells, read-out: Ratio IC50
[16] = Cmax in CD-1 mouse at 20 mg/kg, ip; assay type: ADME, organism-based; set-up: dose 20 mg/kg, route ip; details: in vivo
[17] = Half life in CD-1 mouse at 20 mg/kg, ip; assay type: ADME, organism-based; details: in vivo
[18] = AUClast in CD-1 mouse at 20 mg/kg, ip; assay type: ADME, organism-based; set-up: time 0 - last, dose 20 mg/kg, route ip; details: in vivo
[19] = Cytotoxicity against primary normal human fibroblast cells assessed as inhibition of cell growth incubated for 72 hrs measured by spectrophotometer analysis; assay type: toxicity, cell-based
[20] = Cytotoxicity against HUVEC cells assessed as inhibition of cell growth incubated for 72 hrs measured by spectrophotometer analysis; assay type: toxicity, cell-based; details: human

Compound | IC50 [1] [nM] | IC50 (Histone deacetylase 3) [nM] | IC50 (Histone deacetylase 8) [nM] | IC50 at 72 h (in vitro) [nM] | IC50 (MV4-11 [2]) [nM] | IC50 (Histone deacetylase 11) [nM] | IC50 (MM1.S) [nM] | IC50 [3] [nM] | further results
O=C(NO)c1ccc2c(c1)CCN(S(=O)(=O)c1cc(F)c(F)c(F)c1F)C2 | 50.4 | > 1000 | > 1000 | > 25000 | 900 | > 1000 | 1540 | – | –
O=C(CCCCCCC(=O)Nc1ccccc1)NO [VORINOSTAT] | – | – | – | – | – | – | 1540 | – | –
O=C(CCCCCCNC(=O)c1cnc(N(c2ccccc2)c2ccccc2)nc1)NO [RICOLINOSTAT] | – | – | – | > 20000 | – | – | 840 | 90.2 | IC50 [9]: 5220 nM
O=C(NO)c1ccc(CN(C2CCCC2)S(=O)(=O)c2cc(F)c(F)c(F)c2F)cc1 | 49.9 | > 1000 | > 1000 | > 50000 | 2710 | > 1000 | 3300 | 356 | –
O=C(CCCCCCNC(=O)c1cnc(N(c2ccccc2)c2ccccc2Cl)nc1)NO [CITARINOSTAT] | – | – | – | > 30000 | – | – | – | 154 | inhibition (MV4-11 [10]): Active; IC50 [9]: 5800 nM; Activity (MV4-11 [11]): 24%; Activity (HD-MB03 [12]): Active; Activity (MV4-11 [13]): 8.31%; Activity (HD-MB03 [14]): Active; IC50 at 72 h [7]: 4350 nM
CC(C)N(Cc1ccc(C(=O)NO)cc1)C(=O)c1c(F)c(F)c(F)c(F)c1F | – | – | – | > 50000 | – | – | 12300 | – | –
O=C(/C=C/c1cccc(S(=O)(=O)Nc2ccccc2)c1)NO [BELINOSTAT] | – | – | – | – | – | – | – | 213 | IC50 [9]: 320 nM; selectivity ratio [15]: 3.7
CCCCN(Cc1ccc(C(=O)NO)cc1)C(=O)Nc1ccccc1 [NEXTURASTAT A] | – | – | – | > 20000 | – | – | 1760 | – | AUC(0-inf) [4]: 2550 ng·h/mL; Cmax [16]: 750 ng/mL; AUC/dose [6]: 126 ng·h/mL; half-life [17]: 114 min; AUC(0-t) [18]: 2520 ng·h/mL

Now from value to molecule, other results behind:

IC50 [1] [nM] | IC50 (Histone deacetylase 3) [nM] | IC50 (Histone deacetylase 8) [nM] | IC50 at 72 h (in vitro) [nM] | IC50 (MV4-11 [2]) [nM] | IC50 (Histone deacetylase 11) [nM] | Compound | IC50 (MM1.S) [nM] | IC50 [3] [nM] | further results
24.6 | > 1000 | > 1000 | > 50000 | 520 | > 1000 | CC(C)CN(Cc1ccc(C(=O)NO)cc1)S(=O)(=O)c1cc(F)c(F)c(F)c1F | 690 | 137 | –
– | – | > 1000 | > 20000 | 400 | – | O=C(NO)c1ccc(CN(C2CC2)S(=O)(=O)c2cc(F)c(F)c(F)c2F)cc1 | 480 | 173 | AUC(0-inf) [4]: 1520 ng·h/mL; half-life [5]: 41 min; AUC/dose [6]: 79 ng·h/mL; IC50 at 72 h [7]: 1430 nM
16.2 | 899 | > 1000 | > 50000 | 7430 | > 1000 | CC(C)N(Cc1ccc(C(=O)NO)cc1)Cc1cc(F)c(F)c(F)c1F | 11400 | – | logP [8]: 4.07
27.8 | > 1000 | > 1000 | > 25000 | 660 | > 1000 | COCCN(Cc1ccc(C(=O)NO)cc1)S(=O)(=O)c1cc(F)c(F)c(F)c1F | 710 | – | –
143 | > 1000 | 84.6 | > 25000 | 2500 | > 1000 | CC(C)N(Cc1ccc(CC(=O)NO)cc1)S(=O)(=O)c1cc(F)c(F)c(F)c1F | 2400 | – | –
121 | > 1000 | > 1000 | > 50000 | 1000 | > 1000 | CC(C)N(Cc1ccc(C(=O)NO)cn1)S(=O)(=O)c1cc(F)c(F)c(F)c1F | 1600 | 1130 | –
4.32 | – | – | > 20000 | – | – | CC(C)N(Cc1ccc(C(=O)NO)cc1)S(=O)(=O)c1c(F)c(F)c(F)c(F)c1F | 440 | 182 | Activity (MV4-11 [10]): Active; half-life [5]: 22 min; IC50 at 72 h [19]: 2300 nM; IC50 at 72 h [20]: 3700 nM
> 1000 | > 1000 | 474 | > 50000 | 5660 | > 1000 | COc1cc(C(=O)NO)ccc1CN(C(C)C)S(=O)(=O)c1cc(F)c(F)c(F)c1F | 5750 | – | –
